{
  "source": "patent US20170081679A1",
  "about": "“METHODS OF IMPROVING NUCLEASE MEDIATED HOMOLOGOUS RECOMBINATION” (priority 2015, published 2017)",
  "key": {"[1]": {"system": "rabbit embryos (rbApoAI locus)", "test": "TALEN mediated knock-in of hApoAII to rbApoAI locus in embryos in vitro", "format": "cell-based", "settings": "RS-1 7.5 μM, control 7%", "from_the_text": "In another embodiment, we tested the effects of RS-1 in a TALEN mediated knock-in system. We designed and validated TALEN pairs targeting rbApoAI locus for knocking in the hApoAII coding sequence (FIG. 2B)."}, "rabbit embryos": {"system": "rabbit embryos", "test": "Embryo development (blastocyst rate) after microinjection and treatment", "format": "cell-based", "settings": "20 h; for blastocyst development: control 61.2%", "description": "(§1) In one embodiment, we designed sgRNA targeting a ROSA26 like locus (RLL) in the rabbit genome (FIG. 2E). We next determined the effects of SCR7, an NHEJ inhibitor, and RS-1, an HDR enhancer on the knock-in success rates. Donor template DNAs were co-microinjected with Cas9 mRNA and sgRNA for RLL locus. After injection, the embryos were treated for 20 h in a serial concentration of SCR7: 0 μM (control), 20 μM, 40 μM, and 80 μM, or in RS-1 at 0 μM (control), 7.5 μM, and 15 μM.\n(§2) In one embodiment, we microinjected 79 embryos with RAD51 mRNA, in addition to sgRNA, Cas9 mRNA and donor DNAs (FIG. 3A). RAD51 recombinase is a key player for homologous recombination and the repair of DNA DSBs (reference 13). Since it has been reported that RS-1 stimulates RAD51 (reference 12), we reasoned that including RAD51 mRNA in the microinjection mix would yield similar improvements on the knock-in efficiency as achieved with RS-1."}, "[2]": {"system": "RLL-EGFP knock-in founder rabbits", "test": "Germline transmission and allele distribution in embryos parented by RLL-EGFP founders", "format": "in vivo, rabbit", "from_the_text": "(§3) At the time of submitting this manuscript, five RLL-EGFP founders, three from the RS-1 treatment group, two from the non-treatment group, have reached sexual maturity. We bred these RLL-EGFP founder animals with WT counterparts.\nTo ultimately determine the frequencies of different types of alleles (i.e. WT, indel and knock-in) in the germ cells of knock-in animals, we used WT animals to breed with five RLL knock-in founders, 2 derived without RS-1 treatment and the other 3 with RS-1 treatment. Embryos were produced from founders of the RS-1 treated group (n=72) and the non-treated group (n=66), sequenced, and categorized as WT, indel, or knock-in based on the allele sequence (FIG. 2I). Similar percentage of WT alleles (17 vs. 18%) are found between these two groups. […] It appears that knock-in events take place at the expense of KO because the overall mutation rates (indel+knock-in) were similar between these two groups."}, "rabbit RLL": {"system": "rabbit RLL", "test": "Cas9 mediated RLL-EGFP knock-in animal production (embryo transfer)", "format": "in vivo", "settings": "RS-1 7.5 μM", "description": "In one embodiment, we used RS-1 at 7.5 μM for the in vivo experiments. The sgRNA and donor DNA were used for knocking in EGFP to the rabbit RLL.\nIn the control group, we transferred a total of 373 embryos to synchronized recipient rabbits and obtained 43 kits. Twenty-nine of these 43 kits (67%) carried indel alleles but with on knock-in alleles. Three are proven as knock-in founders after PCR and sequencing (FIG. 2A). Of note, these three knock-in founders also carry indel alleles. The overall knock-in efficiency is 0.8% calculated by total knock-in founders/total embryos transferred, or 7.0% calculated by total knock-in founders/total kits born.\nIn the RS-1 treatment group (FIG. 2A), we transferred 146 embryos and obtained 38 kits, 18 of which carried indel but no knock-in alleles (47%). Similar to the in vitro results, the knock-in success rate was multifold higher than that in the control group. A total of 10 knock-in founders were produced, with the knock-in efficiency of 6.8% calculated by total knock-in founders/total embryos transferred, or 26.3% calculated by total knock-in founders/total kits born."}, "rbApoAI locus": {"system": "rbApoAI locus", "test": "TALEN mediated hApoAII knock-in animal production (embryo transfer)", "format": "in vivo, rabbit", "settings": "RS-1 treatment", "from_the_text": "In another embodiment, we tested RS-1 on the TALEN system in vivo. The same TALEN pairs and donor DNAs used in the in vitro work were used to product hApoAII knock-in animals.\nWithout RS-1 treatment, only one founder animal was produced out of 227 embryos transferred (FIG. 2A). The knock-in efficiency was 0.4% calculated by total knock-in founders/total embryos transferred or 6.3% calculated by total knock-in founders/total kits born.\nAfter RS-1 treatment, we transferred a total of 145 embryos and obtained 17 kits. Seven out of 17 kits carried indel but no knock-in alleles (41%)."}, "founder rabbits": {"system": "founder rabbits", "test": "Health and reproduction of founder animals", "format": "in vivo", "from_the_text": "as §3\nIn sum, RS-1 is effective on improving knock-in rates in both the TALEN and the Cas9 mediated genome editing systems."}, "[3]": {"system": "rabbit embryos (ROSA26 like locus, RLL)", "test": "Cas9 mediated RLL-EGFP knock-in in rabbit embryos in vitro", "format": "cell-based", "description": "as §1, §2"}, "[4]": {"system": "rabbit embryos (CFTR locus)", "test": "Cas9 mediated knock-in of CFTRdelF508 to rabbit CFTR locus in embryos in vitro", "format": "cell-based", "settings": "CFTRdelF508, Cas9, RS-1 7.5 μM; control 13%", "from_the_text": "In another embodiment, we tested the effects of RS-1 supplementation on Cas9 mediated knock-in of CFTRdelF508, the most frequent mutation type identified in human cystic fibrosis (CF) patients, to the rabbit CFTR locus (FIG. 4)."}},
  "note": "“Also recorded” adds a separate entry of the source.",
  "data": [
    {"smiles": "O=C(Nc1ccc(Br)cc1)c1ccc(Br)c(S(=O)(=O)NCc2ccccc2)c1", "note": "[RS-1]", "values": [
      {"measurement": "percentage of embryos carrying knock-in alleles", "setting": "[1]", "result": 15, "unit": "%"},
      {"measurement": "blastocyst development", "setting": "rabbit embryos; RS-1 7.5 μM", "result": 57.6, "unit": "%"},
      {"measurement": "blastocyst development", "setting": "rabbit embryos; RS-1 15 μM", "result": 82.2, "unit": "%"},
      {"measurement": "percentage of WT alleles", "setting": "[2]; embryos (n=72) parented by founders of RS-1 treated group, other group 18%", "result": 17, "unit": "%"},
      {"measurement": "embryos carrying the knock-in allele (knock-in frequency at allele level)", "setting": "[2]; embryos (n=72) parented by founders of RS-1 treatment group bred with WT, non-treated 14%", "result": 33, "unit": "%"},
      {"measurement": "germline transmitting founder animals", "setting": "[2]; three animals of RS-1 treatment group, non-treatment 50%", "result": 100, "unit": "%"},
      {"measurement": "kits carrying indel but no knock-in alleles", "setting": "rabbit RLL; 18 of 38 kits, control 67%", "result": 47, "unit": "%"},
      {"measurement": "knock-in efficiency, total knock-in founders/total embryos transferred", "setting": "rabbit RLL; Cas9, control 0.8%", "result": 6.8, "unit": "%"},
      {"measurement": "knock-in efficiency, total knock-in founders/total kits born", "setting": "rabbit RLL; Cas9, control 7.0%", "result": 26.3, "unit": "%"},
      {"measurement": "kits carrying indel but no knock-in alleles", "setting": "rbApoAI locus; 7 of 17 kits", "result": 41, "unit": "%"},
      {"measurement": "knock-in efficiency, total knock-in founders/total embryos transferred", "setting": "rbApoAI locus; control 0.4%", "result": 2.1, "unit": "%"},
      {"measurement": "knock-in efficiency, total knock-in founders/total kits born", "setting": "rbApoAI locus; control 6.3%", "result": 17.6, "unit": "%"},
      {"measurement": "abnormalities in founder animals", "setting": "founder rabbits; RLL-EGFP and hApoAII founders derived from RS-1 treatment", "result": "No abnormalities"},
      {"measurement": "toxic effects on overall animal health and reproduction", "setting": "founder rabbits; RS-1 treatment of embryos", "result": "does not appear to have any toxic effects"},
      {"measurement": "knock-in rate", "setting": "[3]; RS-1 7.5 μM, 20 h, control 4.8%", "result": 26.1, "unit": "%"},
      {"measurement": "knock-in efficiency", "setting": "[3]; RS-1 15 μM, 20 h, control 4.8%", "result": 5.4, "unit": "%"},
      {"measurement": "increase of knock-in efficiency", "setting": "[3]; RS-1 at optimal concentration 7.5 μM, different loci (RLL, ApoAI, CFTR), in vitro", "result": "2- to 5 fold"},
      {"measurement": "percentage of embryos carrying knock-in alleles", "setting": "[4]", "result": 30, "unit": "%"}
    ]},
    {"smiles": "O=c1[nH]c(=S)[nH]c(N=Cc2ccccc2)c1N=Cc1ccccc1", "note": "[SCR7]", "values": [
      {"measurement": "effect on embryo development", "setting": "rabbit embryos; SCR7 20, 40, 80 μM, judged by blastocyst rates", "result": "no effects on embryo development"},
      {"measurement": "blastocyst rate", "setting": "rabbit embryos; SCR7 treatment conditions (up to 80 μM)", "result": "62-72%"},
      {"measurement": "effect on overall knock-in efficiency", "setting": "[3]; SCR7 20, 40, 80 μM for 20 h vs control", "result": "minimal effects; also recorded: no significant effects"},
      {"measurement": "overall knock-in efficiency", "setting": "[3]; SCR7 treatment groups 20-80 μM, 20 h, control 7.1%", "result": "7.7-9.4%"}
    ]}
  ]
}
